From article PMC5690597, “Suppression and resolution of autoimmune arthritis by rhesus θ-defensin-1, an immunomodulatory macrocyclic peptide” (PLoS ONE, 2017)
Bridge positions count the residues as written; N and C are the ends. Peptide text beside a SMILES is read from it.

What was measured:
[1] = test system: IL-6 production by fibroblast-like synoviocytes (FLS); assay: Expression of IL-6 by stimulated FLS; assay type: cell-based, DA rat; conditions: RTD-1 10 μg/ml; TNFα or IL-1β 3 or 10 ng/ml; 24 h; ELISA; n = 12, 3 experiments
Protocol: (§1) Fibroblast-like synoviocytes (FLS) were isolated by enzymatic digestion of the synovial tissue from DA rats with PIA as previously described. Cells were washed and suspended in DMEM supplemented with 10% fetal bovine serum (Gibco, Grand Island, NY), 30 mg/ml L-glutamine (Sigma), 250 μg/ml amphotericin B (Sigma), and […] gentamicin (Gibco). After overnight culture, non-adherent cells were removed and adherent cells were cultured to approximately 70–90% confluence and passaged following detachment with 0.25% trypsin-EDTA for 3 min at 37°C. All experiments were performed with FLS after at least four passages.
FLS were cultured in 12-well plates at 4–6 × 10^4 cells/well for 24 h (viability > 95% by trypan blue staining). Medium was replaced and FLS were incubated with TNFα or IL-1β at final concentrations of 3 or 10 ng/ml plus RTD-1 (10 μg/ml in 0.01% acetic acid (HOAc)) or vehicle alone. After 24 h incubation, FLS culture supernatants were removed, clarified by centrifugation, and analyzed for IL-6 by ELISA (Invitrogen, Carlsbad, CA).

ADAM10 = ADAM10 (Homo sapiens, UniProt O14672); assay: biochemical
Protocol: (§2) RTD-1 was analyzed for enzymatic inhibition against zinc metalloproteases ADAM17, ADAM10, matrix metalloproteases (MMPs) 1, 2, 3, 8, 9, 13, and 14, and cysteine cathepsins (Cats) B, C, H, K, L, S, and V (Table 1). ADAM10 and ADAM17 activities were measured by release of fluorogenic peptides cleaved from pro-TNF (R&D Systems, Minneapolis, MN). ADAM10 was diluted to 0.05 μg/ml and ADAM17 to 0.1 μg/ml with 25 mM TRIS, 2.5 μM ZnCl2, 0.005% Brij35, pH 9.0 and incubated with 0 to 3 μg/ml RTD-1 dissolved in 0.01% HOAc. Assay was initiated by addition of substrate (10 μM final) and enzymatic activity measured at 37°C (ADAM10) or 22°C (ADAM17) every 30 seconds for 1 h in a SpectraMax M5e fluorometer (Molecular Devices, Sunnyvale, CA) with 320 nm excitation and 405 nm emission.
(§3) Inhibition of MMPs by RTD-1 was performed as described, incubating each enzyme with 0–100 μg/ml of RTD-1. IC50 values were calculated by GraphPad Prism 5.01 (GraphPad Software, San Diego, CA) utilizing a non-linear curve fit of log [inhibitor] versus response with variable slope.

ADAM17 = ADAM17 (Homo sapiens, UniProt P78536); assay: biochemical
Protocol: as §2, §3

DA-PIA-FLS = assay: FLS proliferation (CyQuant); assay type: cell-based, DA rat; conditions: RTD-1 0–30 μg/ml; 24 or 48 h in culture; DNA staining
Protocol: as §1
All assays were performed with ≥ 7 replicates.

[2] = test system: DA/OlaHsd rats with pristane-induced arthritis; assay: Pristane-induced arthritis (PIA), established disease (AS ≥ 3); assay type: in vivo, rat
Protocol: Female DA/OlaHsd (D blood group allele and Agouti, also known as Dark Agouti), rats were obtained from Harlan Laboratories (Indianapolis, IN). Animals were allowed to acclimate for 48–72 hours prior to experimental use. Animals were fed standard chow ad lib during a 12-hour day/night cycle. PIA was induced in 5–7 week old animals (90–100 gm) by intradermal injection of 250 μl pristane (Sigma) divided into 3–5 sites at the base of the tail. Animals were monitored daily and disease severity of each limb was scored 0–4 using the method of Brand et al.. The severity scores for all limbs of individual animals were totaled to give an individual’s arthritis severity score (AS) ranging from zero for normal animals to maximum disease score of sixteen. […] In three separate trials, treatment was also blinded to scorers. […] Treatment with saline (vehicle), RTD-1, or anti-arthritic agents was randomized and initiated when an animal first presented with an AS of 3 or more. RTD-1 was administered subcutaneously with doses ranging from 0.2 to 5.0 mg/kg in an injection volume of 0.5 ml at intervals ranging from once a day (qd) to once every seven days (q7d). MTX was administered at 0.25 mg/kg by intraperitoneal injection q3d. Etanercept was administered at 0.4 mg/kg by subcutaneous injection q3d.

[3] = no method or data given
[4] = test system: DA rats with advanced PIA; assay: Severe (advanced) pristane-induced arthritis (AS ≥ 12); assay type: in vivo, rat
Protocol: Female DA/OlaHsd (D blood group allele and Agouti, also known as Dark Agouti), rats were obtained from Harlan Laboratories (Indianapolis, IN). Animals were allowed to acclimate for 48–72 hours prior to experimental use. Animals were fed standard chow ad lib during a 12-hour day/night cycle. PIA was induced in 5–7 week old animals (90–100 gm) by intradermal injection of 250 μl pristane (Sigma) divided into 3–5 sites at the base of the tail. Animals were monitored daily and disease severity of each limb was scored 0–4 using the method of Brand et al.. The severity scores for all limbs of individual animals were totaled to give an individual’s arthritis severity score (AS) ranging from zero for normal animals to maximum disease score of sixteen. Disease severity was assessed by at least two scorers and the inter-rater agreement (kappa) value was 0.806 as determined using MedCalc Statistical Software version 14.8.1 (MedCalc Software, Ostend, Belgium). In three separate trials, treatment was also blinded to scorers. There was no statistical difference between blinded and unblinded scoring of any treatment cohort. Treatment with saline (vehicle), RTD-1, or anti-arthritic agents was randomized and initiated when an animal first presented with an AS of 3 or more. […]

ADAM17, sequence (P78536 215-824, species assumed): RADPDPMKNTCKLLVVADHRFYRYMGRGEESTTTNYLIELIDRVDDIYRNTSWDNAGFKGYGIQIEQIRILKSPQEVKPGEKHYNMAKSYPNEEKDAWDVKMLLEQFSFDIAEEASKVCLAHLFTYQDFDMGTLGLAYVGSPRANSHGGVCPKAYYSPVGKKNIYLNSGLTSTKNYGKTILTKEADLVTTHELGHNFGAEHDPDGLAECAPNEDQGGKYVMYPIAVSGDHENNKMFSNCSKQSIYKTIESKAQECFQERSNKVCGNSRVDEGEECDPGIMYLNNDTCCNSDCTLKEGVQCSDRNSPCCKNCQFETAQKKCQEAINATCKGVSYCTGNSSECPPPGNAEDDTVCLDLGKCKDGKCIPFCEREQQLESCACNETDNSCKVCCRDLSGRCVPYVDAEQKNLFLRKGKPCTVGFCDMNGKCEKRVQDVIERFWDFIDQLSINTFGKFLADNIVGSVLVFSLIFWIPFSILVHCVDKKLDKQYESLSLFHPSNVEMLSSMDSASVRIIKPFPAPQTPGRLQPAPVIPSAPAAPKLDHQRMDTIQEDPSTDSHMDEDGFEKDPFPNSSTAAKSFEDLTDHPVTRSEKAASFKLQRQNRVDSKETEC
ADAM10, sequence (O14672 214-748, species assumed): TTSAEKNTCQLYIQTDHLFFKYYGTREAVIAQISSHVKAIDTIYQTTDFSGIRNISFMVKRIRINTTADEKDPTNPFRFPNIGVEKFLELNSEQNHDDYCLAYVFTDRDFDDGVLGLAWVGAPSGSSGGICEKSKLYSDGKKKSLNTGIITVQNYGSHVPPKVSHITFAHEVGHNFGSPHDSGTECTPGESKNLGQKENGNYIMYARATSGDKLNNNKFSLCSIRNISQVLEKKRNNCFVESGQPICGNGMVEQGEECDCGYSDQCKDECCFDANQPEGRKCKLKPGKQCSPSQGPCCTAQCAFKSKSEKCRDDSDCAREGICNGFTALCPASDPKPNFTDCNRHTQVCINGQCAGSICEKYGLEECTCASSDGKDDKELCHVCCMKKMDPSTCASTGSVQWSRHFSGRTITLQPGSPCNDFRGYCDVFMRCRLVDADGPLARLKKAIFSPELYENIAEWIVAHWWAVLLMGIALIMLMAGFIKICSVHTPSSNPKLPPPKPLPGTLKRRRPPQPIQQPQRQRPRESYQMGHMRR

In the case of CC[C@H](C)[C@@H]1NC(=O)[C@@H]2CSSC[C@H](NC(=O)[C@H](CCCNC(=N)N)NC(=O)[C@@H]3CSSC[C@H](NC1=O)C(=O)N[C@@H]([C@@H](C)O)C(=O)N[C@@H](CCCNC(=N)N)C(=O)NCC(=O)N[C@@H](Cc1ccccc1)C(=O)N3)C(=O)N[C@@H](CC(C)C)C(=O)N[C@H]1CSSC[C@H](NC(=O)[C@H](C(C)C)NC(=O)CNC(=O)[C@H](CCCNC(=N)N)NC(=O)[C@H](CCCNC(=N)N)NC1=O)C(=O)N[C@@H](CCCNC(=N)N)C(=O)N2 [RTD-1, rhesus θ-defensin 1] (cyclo(GFCRCLCRRGVCRCICTR); disulfide 3-16, 5-14, 7-12), the “reduction of IL-6 production by FLS” value [1] is reported as 27.3–42.2%, the IC50 (ADAM10) is reported as 450 ± 200 nM and the IC50 (ADAM17) is reported as 110 ± 40 nM. For the same compound, the “effect on FLS proliferation” value (DA-PIA-FLS) was “dose-dependently suppressed FLS proliferation”, the “complete resolution of disease (AS = 0), share of animals” value ([2]; 5 mg/kg s.c. daily for 11 days, 9 of 31 animals, saline 2.5% (1 of 40)) was 29% and the “reduction of mean arthritis severity score (AS) at the end of the observation period compared with vehicle controls” value ([2]; 5 mg/kg s.c. daily for 11 days, DA rats with PIA, AS ≥ 3 at start, 6 independent experiments) was 69%. For the same compound, the “disease resolution by dosing interval” value ([2]; 5 mg/kg s.c. daily, or once every 2, 3, or 5 days, n = 5 per group, single experiment) was “equivalent disease resolution”, the “rate of complete disease resolution on day 11, comparison with RA drugs” value ([2]; RTD-1 s.c. (4 of 16), MTX 0.25 mg/kg i.p. q3d (1 of 22), etanercept 0.4 mg/kg s.c. q3d (0 of 21), saline 0 of 19, 2 independent experiments) was 25% and the “therapeutic effect on AS compared to vehicle control” value ([2]; daily s.c. 0.2 mg/kg) was “no therapeutic effect”. The “reduction in AS compared to vehicle control” value ([2]; daily s.c. 1 mg/kg) was “modest, but not statistically significant reductions in AS”, the “reduction in AS compared to vehicle control by treatment day 3” value ([2]; daily s.c. 3 or 5 mg/kg, 2 independent experiments) was “significant (P ≤ 0.0015) and similar reductions in AS” and the “stability in rat plasma” value [3] was “highly stable”. The “resolution of clinical disease by day 15” value ([4]; 5 mg/kg s.c. daily until AS = 0, AS ≥ 12 before treatment) was “complete resolution of clinical disease in all RTD-1 treated rats” and the “RTD-1 treated animals that relapsed with joint disease” value ([4]; after treatment stop and a disease-free interval) was “three of five”.
